TGI and GI50 data for seven molecules are collected here from PubChem BioAssay (NCI).

Some test systems named below: SK-MEL-28 melanoma; SK-MEL-5 melanoma; HCT-116 colon; 786-0 renal; A549 NSCLC; SR leukemia; SF-268 CNS; IGROV1 ovarian; OVCAR-4 ovarian; MALME-3M melanoma.
Holding throughout (test): NCI-60 cell line screen, 48 h

Where “and” joins values, the source holds several entries; their conditions need not be identical. Equal values may be shown once.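 Method: 48-hour compound exposure of cells in 96-well plates, five concentrations, linear interpolation of endpoints. GI50 is the concentration that inhibits growth by half. The concentration for full growth arrest is given as TGI.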 Where a SMILES comes first, the peptide text is derived from it. [ ]: non-standard residue; d: D form. The star is where a group is joined. ξ: configuration not given here. NMeN = CN[C@@H](CC(N)=O)C(=O)O; NMeV = CN[C@H](C(=O)O)C(C)C; ξNMeV = CNC(C(=O)O)C(C)C; Boc = CC(C)(C)OC(=O)*; ξNMeA = CNC(C)C(=O)O Bounds are passed on as bounds.

Consider `Cc1ccc(NC(=O)CC(=O)n2nc(-c3ccccc3)c(N=Nc3ccccc3Cl)c2-c2ccccc2)cc1`, for which the TGI with SK-MEL-28 melanoma, with SK-MEL-5 melanoma, in the assay on HCT-116 colon, in the assay with 786-0 renal, in the assay with A549 NSCLC and with SR leukemia was over 100 µM throughout. The TGI was over 100 µM in the assay with SF-268 CNS, over 100 µM with IGROV1 ovarian, 87.2 µM with OVCAR-4 ovarian and over 100 µM in the assay on MALME-3M melanoma. In addition, the GI50 in the assay with SF-268 CNS and in the assay with IGROV1 ovarian was over 100 µM in each case.
On to `NC(=O)c1ccc2c(-c3ccnc(NCCCO)n3)c(-c3ccc(F)cc3)nn2c1`, for which the GI50 is over 25 µM in the assay on SK-MEL-28 melanoma; over 25 µM with SK-MEL-5 melanoma; over 25 µM in the assay with HCT-116 colon; over 25 µM in the assay with 786-0 renal; over 23 µM with A549 NSCLC; over 25 µM in the assay with SR leukemia. The GI50 in the assay on SF-268 CNS was over 22.2 µM; with IGROV1 ovarian it was 12.9 µM; in the assay on OVCAR-4 ovarian, over 25 µM; in the assay with MALME-3M melanoma it was over 25 µM. In addition, the TGI with SK-MEL-28 melanoma, in the assay with SK-MEL-5 melanoma, in the assay on HCT-116 colon, with 786-0 renal, in the assay on A549 NSCLC and with SR leukemia was over 25 µM each time. Further, the TGI in the assay with SF-268 CNS, in the assay on IGROV1 ovarian, in the assay on OVCAR-4 ovarian and in the assay with MALME-3M melanoma was over 25 µM in each case.
For the molecule `COC(=O)C(C)N(C)C(=O)[C@H](CC(N)=O)N(C)C(=O)[C@@H]1CCCN1C(=O)[C@H](C(C)C)N(C)C(=O)C(C(C)C)N(C)C(=O)[C@@H](NC(=O)OC(C)(C)C)C(C)C` (some centres not stated) (Boc-V[ξNMeV][NMeV]P[NMeN][ξNMeA]-OMe), the GI50 in the assay on SK-MEL-28 melanoma was over 100 µM; in the assay on SK-MEL-5 melanoma it was over 100 µM; with HCT-116 colon it was 39.3 µM; in the assay with 786-0 renal it was 57 µM; with A549 NSCLC, over 100 µM; in the assay with IGROV1 ovarian, over 100 µM. In addition, the TGI was over 100 µM in the assay on SK-MEL-28 melanoma; 50 µM and > 100 µM in the assay with SK-MEL-5 melanoma; 50 µM and > 100 µM in the assay with HCT-116 colon; over 100 µM in the assay with 786-0 renal; 50 µM and > 100 µM with A549 NSCLC; over 100 µM with SR leukemia. The TGI in the assay on SF-268 CNS, in the assay on IGROV1 ovarian, with OVCAR-4 ovarian and in the assay with MALME-3M melanoma was over 100 µM each time.
Regarding `COC(=O)c1c2c(c(C)[n+]([O-])c1C)C(=O)C=C(NCc1ccc(OC)cc1)C2=O`, the GI50 was 3.2 µM in the assay on SK-MEL-28 melanoma; 0.607 µM with SK-MEL-5 melanoma; 2.4 µM with HCT-116 colon; 5.48 µM in the assay on 786-0 renal; 2.21 µM in the assay with A549 NSCLC; 3.5 µM with SR leukemia. For the same molecule, the GI50 in the assay with SF-268 CNS was 2.24 µM; in the assay on IGROV1 ovarian, 1.06 µM; in the assay on OVCAR-4 ovarian it was 0.655 µM; in the assay with MALME-3M melanoma, 0.3 µM. Further, the TGI in the assay with SK-MEL-28 melanoma was 10 µM; in the assay with SK-MEL-5 melanoma it was 1.21 µM; with HCT-116 colon, 7.08 µM; in the assay with 786-0 renal, 23.3 µM; in the assay on A549 NSCLC it was 6.44 µM; with SR leukemia it was over 100 µM. Also, the TGI in the assay with SF-268 CNS came out at 8.27 µM; in the assay with IGROV1 ovarian, 3.59 µM; with OVCAR-4 ovarian, 1.79 µM; with MALME-3M melanoma it was 0.845 µM.
For `COc1cc2cc(C(=O)Nc3cc(N)c4ccccc4c3CCCl)[nH]c2c(OC)c1OC`, the GI50 with SK-MEL-28 melanoma was 0.0923 µM; with SK-MEL-5 melanoma, 0.0688 µM; in the assay on HCT-116 colon, 0.0177 µM; in the assay with 786-0 renal, under 0.005 µM; in the assay on A549 NSCLC, 0.116 µM; in the assay with SR leukemia, under 0.005 µM. For the same molecule, the GI50 with SF-268 CNS was 0.017 µM; with IGROV1 ovarian it was 0.0146 µM; in the assay with OVCAR-4 ovarian, 0.0733 µM; with MALME-3M melanoma, 0.119 µM. Moreover, the TGI in the assay on SK-MEL-5 melanoma was 0.195 µM; in the assay with HCT-116 colon, 5.83 µM; with 786-0 renal it was 1.09 µM; in the assay with A549 NSCLC it was over 50 µM; with SR leukemia it was 0.0804 µM; in the assay with SF-268 CNS, 6.87 µM. For the same molecule, the TGI in the assay with IGROV1 ovarian came to 3.51 µM; with OVCAR-4 ovarian, 0.325 µM; in the assay with MALME-3M melanoma, 0.274 µM.
As to `O=CN1N=C(c2ccc(Cl)cc2)CC1c1cccc(Nc2ccnc3cc(Cl)ccc23)c1` (configuration not stated), the GI50 with SK-MEL-28 melanoma was 3.15 µM; in the assay with SK-MEL-5 melanoma it was 0.54 µM; in the assay with HCT-116 colon, 1.2 µM; in the assay on 786-0 renal, 2.96 µM; in the assay with A549 NSCLC it was 2.03 µM; in the assay with SR leukemia, 0.404 µM. Moreover, the GI50 was 2.73 µM in the assay with SF-268 CNS, 1.44 µM in the assay with IGROV1 ovarian, 0.638 µM with OVCAR-4 ovarian and 1.27 µM in the assay with MALME-3M melanoma. The TGI in the assay with SK-MEL-28 melanoma is 31.2 µM; in the assay on SK-MEL-5 melanoma it was 1.93 µM; in the assay with HCT-116 colon it was 4.02 µM; in the assay with 786-0 renal it was 14.5 µM; in the assay with A549 NSCLC, 94.2 µM; with SR leukemia, 3.76 µM. The TGI in the assay on SF-268 CNS was over 100 µM; in the assay with IGROV1 ovarian it was over 100 µM; with OVCAR-4 ovarian it was 16.7 µM; with MALME-3M melanoma it was 7.25 µM.
With `O=C(CC12CC3CC(CC(C3)C1)C2)NCCOCCOCCOCCNC(=O)c1cc2c(o1)C(=O)c1ccccc1C2=O`, the GI50 in the assay with SK-MEL-28 melanoma was 1.7 µM; in the assay with SK-MEL-5 melanoma, 0.181 µM; with HCT-116 colon, 1.87 µM; with 786-0 renal, 2.55 µM; in the assay with A549 NSCLC it was 0.331 µM; in the assay on SR leukemia, 1.67 µM. The GI50 in the assay with SF-268 CNS is 2.17 µM; in the assay on IGROV1 ovarian, 1.66 µM; in the assay on OVCAR-4 ovarian, 1.12 µM; in the assay with MALME-3M melanoma, 0.157 µM. Besides, the TGI is 3.27 µM in the assay with SK-MEL-28 melanoma; 0.343 µM in the assay with SK-MEL-5 melanoma; 6.33 µM with HCT-116 colon; 8.87 µM in the assay on 786-0 renal; 1.18 µM in the assay with A549 NSCLC; 8.76 µM in the assay on SR leukemia. Further, the TGI in the assay on SF-268 CNS was found to be 5.59 µM; in the assay on IGROV1 ovarian, 4.6 µM; in the assay on OVCAR-4 ovarian, 2.33 µM; in the assay on MALME-3M melanoma, 0.328 µM.
